Columns and labels:
Format in all cases: cell-based
[1] = tested on: Candida albicans (ATCC 90028); test: Fluorescence after 24 hours, serial dilutions in Trypticase Soy broth; details: for Fluorescence reading: 24 hours
Method: (§1) This experiment was performed to test 7-nitrocoumarin-3-carboxylic acid on sixteen (16) different types of microorganism, including one yeast species.
(§2) A mass of 10 mg of the indicator was dissolved in 4 ml of hot, distilled water and this solution was then added to 96 ml of Trypticase Soy broth. The resultant mixture was sterile-filtered.
[…] Each culture was then diluted 1,000-fold in Trypticase Soy broth and then serial 10-fold dilutions were made in more Trypticase Soy broth until the test aliquot contained no more microbial cells.
(§3) The resultant dilutions ranged from 10^−3 to 10^−13.
(§4) Fifty microliters of each dilution plus 50 μl of Trypticase Soy broth were added to wells of a microtiter plate with or without 7-nitrocoumarin-3-carboxylic acid.
(§5) The plates were read (T zero) and then incubated at 35° C. before being read again after 24 hours. Two different readings were made at each time point:
(§6) of the fluorescence (excitation at 365 nm and emission at 440 nm), using a Biolite F1 2001 fluorometer (Labtech International Limited), for wells containing 7-nitrocoumarin-3-carboxylic acid.

[2] = tested on: Brevundimonas vesicularis (ATCC 11426); test: as above
Method: as §1, §2
(§7) All the microorganisms were grown for 24 hours in Trypticase Soy broth at 35° C. Each culture was then diluted 1,000-fold in Trypticase Soy broth and then serial 10-fold dilutions were made in more Trypticase Soy broth until the test aliquot contained no more microbial cells.
as §3, §4, §5, §6

[3] = tested on: Pseudomonas fluorescens (ATCC 13525); test: as above
Method: as §1, §2, §7, §3, §4, §5, §6

Citrobacter diversus [4] = test: Reduction of the indicator by wild Enterobacteriaceae strain (fluorescence); details: 0.17 mmol/l
Method: (§8) The E. coli was grown for 24 hours at 35° C. on Columbia agar supplemented with sheep blood. The bacteria were then resuspended in sterile, distilled water and their density was adjusted to 0.5 on the MacFarland scale (i.e. about 10^8 cells/ml). This suspension was then diluted 100-fold in sterile Mueller-Hinton broth (i.e. to a final density of about 10^6 cells/ml).
(§9) Fifty microliters of each nitrocoumarin solution plus 50 μl of bacterial suspension were then added to the wells of a microtiter plate. The plates were incubated at 35° C. and the optical density and fluorescence of each well was read every 30 min for a total of 4 hours. Optical density (690 nm) readings were made using an Anthos 2001 spectrophotometer (Labtech International Limited), and fluorescence (excitation at 365 nm and emission at 440 nm) readings were made on a Biolite F1 2001 fluorometer (Labtech International Limited).
(§10) This experiment was designed to investigate whether or not it would be possible to detect Enterobacteriaceae other than E. coli using 7-nitrocoumarin-3-carboxylic acid. The conditions for this experiment were similar to those described for the first experiment (section A).
(§11) Five wild strains belonging to the species Citrobacter diversus, Enterobacter agglomerans, Hafnia alvei, Morganella morganii and Shigella sonnei were tested

Morganella morganii = test: Growth of wild Enterobacteriaceae strain in Mueller-Hinton broth (optical density); details: 0.17 mmol/l
Method: as §8, §9, §10, §11

Hafnia alvei = test: as above; details: 0.17 mmol/l
Method: as §8, §9, §10, §11

Enterobacter agglomerans = test: as above; details: 0.17 mmol/l
Method: as §8, §9, §10, §11

Shigella sonnei = test: as above; details: 0.17 mmol/l
Method: as §8, §9, §10, §11

Citrobacter diversus [5] = test: as above; details: 0.17 mmol/l
Method: as §8, §9, §10, §11

[6] = tested on: Enterobacteriaceae, non-fermenting Gram-positive bacilli, Staphylococcus spp., Streptococcus spp., Listeria spp. and yeasts; test: Reduction of nitrocoumarin derivatives by most microorganisms (results not presented)

O=C(O)c1cc2ccc([N+](=O)[O-])cc2oc1=O [7-nitrocoumarin-3-carboxylic acid]
Fluorescence reading ([1]; dilution 10^−3): 2847 | Fluorescence reading ([1]; dilution 10^−4): 2609 | Fluorescence reading ([1]; dilution 10^−5): 2335 | Fluorescence reading ([1]; dilution 10^−6): 2041 | Fluorescence reading ([1]; dilution 10^−7): 1693 | Fluorescence reading ([1]; dilution 10^−8): 1745 | Fluorescence reading ([1]; dilution 10^−9): 1693 | Fluorescence reading ([1]; dilution 10^−10): 1751 | Fluorescence reading ([1]; dilution 10^−11): 1666 | Fluorescence reading ([1]; dilution 10^−12): 1702 | Fluorescence reading ([1]; dilution 10^−13): 1666 | Fluorescent signal compared with bacteria (in words) ([1]; RPMI medium, results not presented): comparable to that generated by the bacteria | Fluorescent signal compared with bacteria (in words) ([1]; Trypticase Soy broth): only a faint fluorescent signal | Fluorescence reading ([2]; dilution 10^−3): 2543 | Fluorescence reading ([2]; dilution 10^−4): 1962 | Fluorescence reading ([2]; dilution 10^−5): 1861 | Fluorescence reading ([2]; dilution 10^−6): 1941 | Fluorescence reading ([2]; dilution 10^−7): 1928 | Fluorescence reading ([2]; dilution 10^−8): 1889 | Fluorescence reading ([2]; dilution 10^−9): 1929 | Fluorescence reading ([2]; dilution 10^−10): 1910 | Fluorescence reading ([2]; dilution 10^−11): 1938 | Fluorescence reading ([2]; dilution 10^−12): 1919 | Fluorescence reading ([2]; dilution 10^−13): 1877 | Fluorescence reading ([3]; dilution 10^−3): 8985 | Fluorescence reading ([3]; dilution 10^−4): 1774 | Fluorescence reading ([3]; dilution 10^−5): 1657 | Fluorescence reading ([3]; dilution 10^−6): 1625 | Fluorescence reading ([3]; dilution 10^−7): 1716 | Fluorescence reading ([3]; dilution 10^−8): 1690 | Fluorescence reading ([3]; dilution 10^−9): 1736 | Fluorescence reading ([3]; dilution 10^−10): 1666 | Fluorescence reading ([3]; dilution 10^−11): 1691 | Fluorescence reading ([3]; dilution 10^−12): 1666 | Fluorescence reading ([3]; dilution 10^−13): 1624 | Fluorescent signal (Citrobacter diversus [4]; 0 min): 0 | Fluorescent signal (Citrobacter diversus [4]; 30 min): 3 | Fluorescent signal (Citrobacter diversus [4]; 60 min): 3 | Fluorescent signal (Citrobacter diversus [4]; 90 min): 34 | Fluorescent signal (Citrobacter diversus [4]; 120 min): 92 | Fluorescent signal (Citrobacter diversus [4]; 150 min): 281 | Fluorescent signal (Citrobacter diversus [4]; 180 min): 546 | Fluorescent signal (Citrobacter diversus [4]; 210 min): 1209 | Fluorescent signal (Citrobacter diversus [4]; 240 min): 5393 | Optical density (690 nm) (Morganella morganii; 0 min): 0.000 | Optical density (690 nm) (Morganella morganii; 30 min): −0.010 | Optical density (690 nm) (Morganella morganii; 60 min): −0.010 | Optical density (690 nm) (Morganella morganii; 90 min): −0.005 | Optical density (690 nm) (Morganella morganii; 120 min): 0.003 | Optical density (690 nm) (Morganella morganii; 150 min): 0.020 | Optical density (690 nm) (Morganella morganii; 180 min): 0.064 | Optical density (690 nm) (Morganella morganii; 210 min): 0.116 | Optical density (690 nm) (Morganella morganii; 240 min): 0.187 | Optical density (690 nm) (Hafnia alvei; 0 min): 0.000 | Optical density (690 nm) (Hafnia alvei; 30 min): −0.001 | Optical density (690 nm) (Hafnia alvei; 60 min): 0.004 | Optical density (690 nm) (Hafnia alvei; 90 min): 0.009 | Optical density (690 nm) (Hafnia alvei; 120 min): 0.016 | Optical density (690 nm) (Hafnia alvei; 150 min): 0.034 | Optical density (690 nm) (Hafnia alvei; 180 min): 0.092 | Optical density (690 nm) (Hafnia alvei; 210 min): 0.149 | Optical density (690 nm) (Hafnia alvei; 240 min): 0.246 | Optical density (690 nm) (Enterobacter agglomerans; 0 min): 0.000 | Optical density (690 nm) (Enterobacter agglomerans; 30 min): −0.002 | Optical density (690 nm) (Enterobacter agglomerans; 60 min): 0.002 | Optical density (690 nm) (Enterobacter agglomerans; 90 min): 0.006 | Optical density (690 nm) (Enterobacter agglomerans; 120 min): 0.027 | Optical density (690 nm) (Enterobacter agglomerans; 150 min): 0.057 | Optical density (690 nm) (Enterobacter agglomerans; 180 min): 0.155 | Optical density (690 nm) (Enterobacter agglomerans; 210 min): 0.225 | Optical density (690 nm) (Enterobacter agglomerans; 240 min): 0.323 | Optical density (690 nm) (Shigella sonnei; 0 min): 0.000 | Optical density (690 nm) (Shigella sonnei; 30 min): −0.001 | Optical density (690 nm) (Shigella sonnei; 60 min): 0.000 | Optical density (690 nm) (Shigella sonnei; 90 min): 0.002 | Optical density (690 nm) (Shigella sonnei; 120 min): 0.013 | Optical density (690 nm) (Shigella sonnei; 150 min): 0.042 | Optical density (690 nm) (Shigella sonnei; 180 min): 0.097 | Optical density (690 nm) (Shigella sonnei; 210 min): 0.159 | Optical density (690 nm) (Shigella sonnei; 240 min): 0.246 | Optical density (690 nm) (Citrobacter diversus [5]; 0 min): 0.000 | Optical density (690 nm) (Citrobacter diversus [5]; 30 min): 0.000 | Optical density (690 nm) (Citrobacter diversus [5]; 60 min): 0.005 | Optical density (690 nm) (Citrobacter diversus [5]; 90 min): 0.011 | Optical density (690 nm) (Citrobacter diversus [5]; 120 min): 0.020 | Optical density (690 nm) (Citrobacter diversus [5]; 150 min): 0.050 | Optical density (690 nm) (Citrobacter diversus [5]; 180 min): 0.092 | Optical density (690 nm) (Citrobacter diversus [5]; 210 min): 0.143 | Optical density (690 nm) (Citrobacter diversus [5]; 240 min): 0.250 | Reduction to give a fluorescent signal (in words) [6]: All were capable of reducing
